Assay results taken from paper PMC5668067, “Phase I dose-escalation study of the c-Met tyrosine kinase inhibitor SAR125844 in Asian patients with advanced solid tumors, including patients with MET-amplified gastric cancer” (Oncotarget, 2017).
Entries after “also recorded” stand apart in the source; their conditions may differ. Like-named read-outs stand apart in the source and are kept apart here.

Columns and labels:
[1] = phase I pharmacokinetics in blood (dried blood spot, LC-MS/MS, noncompartmental analysis); format: in vivo, human; conditions: for Cmax: blood; for AUC(0-t): read-out: AUC0–168
Description: Blood samples for pharmacokinetic analysis were acquired using dried blood-spot technology on days 1 and 22 of cycle 1 at several time points before, during, and after infusion (up to 168 hours after administration). Drug concentrations were determined by a validated method of liquid chromatography and tandem mass spectrometry (limit of quantification 2 ng/mL). Pharmacokinetic parameters were calculated using a noncompartmental analysis and included the maximum observed blood concentration (Cmax), AUC from 0 to infinity, AUC0–168, CL, CL after repeated administrations (CLss), volume of distribution at steady state (Vss), and the half-life associated with the terminal slope (t1/2z).

[2] = biological target: c-Met kinase; parameters: method as in PMID 25504634; conditions: cited from earlier work
[3] = tested on: xenograft models of MET-amplified human gastric tumors; parameters: method as in PMID 25504634; conditions: cited from earlier work
[4] = tested on: Asian patients with solid tumors; assay: phase I dose escalation: dose-limiting toxicities, MTD and recommended dose; format: in vivo
Description: This was an open-label, phase I, multicenter study consisting of a dose-escalation phase (to determine the MTD of SAR) and a dose-expansion phase (to evaluate the antitumor activity of SAR at the RD in patients with MET-amplified tumors, including gastric cancer).
The model was run based on DLTs occurring during the first cycle of treatment.
SAR was administered by weekly intravenous infusion on days 1, 8, 15, and 22 of each 28–day cycle. The starting dose was 260 mg/m^2, and dose increments of 30% were made, to a maximum of 570 mg/m^2. Treatment continued until disease progression, unacceptable toxicity, or consent withdrawal. Patients were screened within 21 days before the first administration and followed for 30 days after the last administration.
A DLT was defined as grade 4 neutropenia for ≥ 7 consecutive days, febrile neutropenia, grade 4 thrombocytopenia or grade 3 thrombocytopenia with bleeding requiring a transfusion, any grade ≥ 3 nonhematologic event not easily managed or corrected by medical intervention, or SAR-related toxicity resulting in two or more missed doses.
The safety population consisted of all patients exposed to SAR, regardless of the amount of treatment administered.

[5] = tested on: solid tumors, including MET-amplified gastric cancer; assay: phase I antitumor activity (RECIST 1.1); format: in vivo, human
Description: Tumor response was evaluated by the Response Evaluation Criteria In Solid Tumors version 1.1, which define complete response as disappearance of all target lesions, partial response and progressive disease as a minimally 30% decrease or 20% increase, respectively, in the sum of diameters of target lesions, and stable disease as neither sufficient shrinkage to qualify for partial response nor sufficient increase to qualify for progressive disease. Tumor burden was assessed from computerized tomography or magnetic resonance imaging scans performed at baseline, at the end of cycle 1, and every 8 weeks thereafter. Patients evaluable for efficacy received at least one cycle of SAR, with a minimum of two infusions, and had undergone efficacy assessment at baseline and once or more after that.
In the dose-expansion cohort, MET amplification in tumor tissue was evaluated by a FISH assay. A tumor was considered MET amplified if ≥ 10% of cells had more than four gene copies of MET and the MET:CEP7 ratio was ≥ 2. Total c-MET protein expression was evaluated by immunohistochemistry, calculating the percentage of tumor cells with an immunohistochemistry score of 2+ or 3+ membrane staining. […] Immunohistochemistry was performed on fresh or archival tumor tissue.

[6] = human, whole blood (dried blood spot), intravenous, 570 mg/m2, 570 mg/m^2, cycle 1 Day 1, n = 20, mean ± SD
[7] = human, whole blood (dried blood spot), intravenous, 570 mg/m2, 570 mg/m^2, cycle 1 Day 22, N = 17, mean ± SD
[8] = two xenograft models, intravenous single-agent
[9] = dose-expansion cohort (N = 19), 570 mg/m^2

SMILES: O=C(NCCN1CCOCC1)Nc1nc2ccc(Sc3nnc4ccc(-c5ccc(F)cc5)nn34)cc2s1 [SAR125844]
- Vd ([1]; human, whole blood (dried blood spot), intravenous, 440 mg/m2, 440 mg/m^2, cycle 1 Day 22, N = 3, mean ± SD, read-out: Vss): 490 ± 366 L
- half-life ([1]; human, whole blood (dried blood spot), intravenous, 440 mg/m2, 440 mg/m^2, cycle 1 Day 22, N = 3, mean ± SD, read-out: t1/2z (converted)): 1650 ± 494 min
- Cmax ([1]; human, whole blood (dried blood spot), intravenous, 570 mg/m2, 570 mg/m^2, cycle 1 Day 1, N = 21, mean ± SD): 6570 ± 1680 ng/mL
- AUC [1, 6]: 36200 ± 11800 ng·h/mL
- AUC(0-t) [1, 6]: 36100 ± 11800 ng·h/mL
- clearance ([1]; human, whole blood (dried blood spot), intravenous, 570 mg/m2, 570 mg/m^2, cycle 1 Day 1, n = 20, mean ± SD, read-out: CL (converted)): 463 mL/min
- Vd ([1]; human, whole blood (dried blood spot), intravenous, 570 mg/m2, 570 mg/m^2, cycle 1 Day 1, n = 20, mean ± SD, read-out: Vss): 241 ± 55.3 L
- half-life ([1]; human, whole blood (dried blood spot), intravenous, 570 mg/m2, 570 mg/m^2, cycle 1 Day 1, n = 20, mean ± SD, read-out: t1/2z (converted)): 1370 ± 568 min
- AUC [1, 7]: 35100 ± 15000 ng·h/mL
- Cmax [1, 7]: 6330 ± 1270 ng/mL
- AUC(0-t) [1, 7]: 35100 ± 14900 ng·h/mL
- clearance ([1]; human, whole blood (dried blood spot), intravenous, 570 mg/m2, 570 mg/m^2, cycle 1 Day 22, N = 17, mean ± SD, read-out: CL (converted)): 482 mL/min
- Vd ([1]; human, whole blood (dried blood spot), intravenous, 570 mg/m2, 570 mg/m^2, cycle 1 Day 22, N = 17, mean ± SD, read-out: Vss): 287 ± 105 L
- half-life ([1]; human, whole blood (dried blood spot), intravenous, 570 mg/m2, 570 mg/m^2, cycle 1 Day 22, N = 17, mean ± SD, read-out: t1/2z (converted)): 1270 ± 296 min
- half-life ([1]; human, whole blood (dried blood spot), intravenous, 570 mg/m2, at the RD (570 mg/m^2), read-out: elimination half-life (converted)): ~1260 min
- Vd ([1]; human, whole blood (dried blood spot), intravenous, 570 mg/m2, at the RD (570 mg/m^2), read-out: volume of distribution at steady state): ~253 L
- clearance ([1]; qualitative): medium
- effect of dose on total body clearance (CL) ([1]; statistical analysis, P = 0.25): no significant effect
- effect of dose on CL at steady state (CLs) ([1]; statistical analysis, P = 0.79): no significant effect
- IC50 ([2]; read-out: half-maximal inhibitory concentration): 4.2 nM
- Ki ([2]; read-out: inhibitory constant): 2.8 nM
- toxicity profile ([3]; preclinical): acceptable toxicity profile
- c-Met kinase inhibition in xenograft tumors [3, 8]: c-Met kinase inhibition
- tumor regression [3, 8]: dose-dependent tumor regression
- recommended dose (RD) ([4]; Asian patients, weekly i.v. infusion): 570 mg/m^2
- maximum tolerated dose (MTD) ([4]; dose-escalation cohort, 260–570 mg/m^2 weekly i.v.): not reached
- dose-limiting toxicities (DLTs) ([4]; dose-escalation phase, listed as SAR): No dose-limiting toxicities; also recorded: No DLTs
- patients with a DLT ([4]; expansion cohort, 570 mg/m^2, of 19 patients, cycle 1, transaminase and creatinine increases): one
- patients with early disease progression leading to treatment discontinuation in cycle 1 ([5]; dose-escalation cohort): 11 patients
- objective responses ([5]; dose-escalation cohort (unselected population, N = 19)): No objective responses
- median time to tumor progression ([5]; dose-escalation cohort, 340 mg/m^2): 0.9 months
- median time to tumor progression ([5]; dose-escalation cohort, 440 mg/m^2): 1.7 months
- patients with stable disease ([5]; dose-escalation cohort, after 1 month of treatment): seven
- patients with stable disease ([5]; dose-escalation cohort, after 1 month of treatment, listed as SAR): 7 patients
- patients with progressive disease [5, 9]: 10 patients
- patients with stable disease [5, 9]: seven
- confirmed partial response / objective response rate ([5]; dose-expansion cohort, MET-amplified tumors, 570 mg/m^2, two of 19 patients): 10.5%
- patients with unconfirmed partial response ([5]; dose-expansion cohort, gastric cancer): one
- median time to tumor progression ([5]; dose-expansion cohort, median (range)): 0.92 (0.4–9) months
- median time to tumor progression ([5]; gastric cancer subpopulation of dose-expansion cohort, median (range)): 1.18 (0.4–9) months
- overall response rate (partial response rate) ([5]; gastric cancer subpopulation with MET amplification, two of 14 patients): 14.3%
